Values of other authors as cited in paper PMC12120261, “Responsiveness of different MET tumour alterations to type I and type II MET inhibitors” (Clinical and Translational Medicine, 2025).

Test system: MET G1163R
Design: method as in PMID 31279006

SMILES	sensitivity of the solvent front G1163R mutation
C[C@@H](c1ccc2nccn2c1)n1nnc2ncc(-c3cnn(C)c3)nc21 [savolitinib]	remains sensitive
C[C@@H](Oc1cc(-c2cnn(C3CCNCC3)c2)cnc1N)c1c(Cl)ccc(F)c1Cl [crizotinib, Crizotinib]	conferring resistance
CNC(=O)c1ccc(-c2cnc3ncc(Cc4ccc5ncccc5c4)n3n2)cc1F [capmatinib]	remains sensitive
